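96-well plates; 48 h exposure; 5 concentrations. Endpoints by linear interpolation between flanking doses. Not reached: highest tested concentration assigned. GI50 is the concentration that inhibits growth by half.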 Active and inactive are the calls of the source. Rule as the data show it: active = GI50 up to about 1.1 µM and inactive = higher. Some results are limits rather than exact numbers.

Some test systems named below: UO-31; A549; KM12; HT-29; NCI-H226; RXF 393; SF-539; HL-60; U-251; EKVX; NCI-H522; SW-620; IGROV-1; UACC-257; HCT-15; OVCAR-5; OVCAR-4; SK-MEL-2.
Common to all, as to experiment: NCI anticancer screen, dose series, 48 h

Consider `CC(C)C/C(CC(=O)CCC(=O)Nc1ccccc1[N+](=O)[O-])=N\NC(=O)c1cc2ccccc2cc1O`, for which the GI50 in the assay on UO-31 was 37 µM (inactive); in the assay with A549, > 100 µM (inactive); in the assay on KM12, 67.6 µM (inactive); with HT-29, 91.2 µM (inactive); in the assay on NCI-H226 it was 19.3 µM (inactive); in the assay on RXF 393 it was 9.79 µM (inactive). In addition, the GI50 is 27.1 µM (inactive) in the assay with SF-539; 23.2 µM (inactive) in the assay on HL-60; 39.2 µM (inactive) in the assay with U-251; 34 µM (inactive) in the assay on EKVX; 28.4 µM (inactive) in the assay with NCI-H522; 41.4 µM (inactive) in the assay with SW-620. Also, the GI50 in the assay with IGROV-1 was 26 µM (inactive); in the assay on UACC-257, 37 µM (inactive); in the assay with HCT-15 it was 31.6 µM; with OVCAR-5, 31 µM (inactive).

On to `CCOC(=O)C1C(c2ccc([N+](=O)[O-])cc2)NC(c2ccc([N+](=O)[O-])cc2)C(C(=O)OC)S1(=O)=O` (stereo unspecified), for which the GI50 in the assay on UO-31, in the assay on A549, in the assay on KM12, in the assay with HT-29, with NCI-H226 and in the assay with RXF 393 was > 100 µM (inactive) in each case. The GI50 in the assay on HL-60, in the assay with U-251, in the assay with OVCAR-4, with EKVX, with NCI-H522 and in the assay with SW-620 was > 100 µM (inactive) in each case. In addition, the GI50 in the assay on IGROV-1 is > 100 µM (inactive); with SK-MEL-2, > 100 µM (inactive); with UACC-257 it was > 100 µM (inactive); with HCT-15, > 100 µM; with OVCAR-5, > 100 µM (inactive).

`O=C(CSc1nnc(-c2ccc(/N=C\c3ccc(Cl)cc3)cc2)o1)Nc1ccc(Cl)cc1`: the GI50 with UO-31, with A549, in the assay with KM12, with HT-29, in the assay on NCI-H226 and in the assay with RXF 393 was > 100 µM (inactive) throughout. Besides, the GI50 in the assay with HL-60, in the assay on U-251, in the assay on OVCAR-4, with EKVX, in the assay with NCI-H522 and in the assay on SW-620 was > 100 µM (inactive) in each case. The GI50 in the assay on SK-MEL-2 is > 100 µM (inactive); in the assay with UACC-257, > 100 µM (inactive); in the assay with HCT-15, > 100 µM.

Take `CCOC12SC(Nc3ccc(C)cc3)=NN1C(=S)N(C)N=C2C` (stereo unspecified): the GI50 in the assay with A549, in the assay on KM12, in the assay with HT-29, with NCI-H226, in the assay with RXF 393 and in the assay with SF-539 was > 100 µM (inactive) throughout. Moreover, the GI50 in the assay on HL-60, in the assay on U-251, in the assay on OVCAR-4, in the assay with EKVX, in the assay with NCI-H522 and with SW-620 was > 100 µM (inactive) in each case. Further, the GI50 with IGROV-1 is > 100 µM (inactive); in the assay on UACC-257, > 100 µM (inactive); in the assay on HCT-15 it was > 100 µM; in the assay with OVCAR-5, > 100 µM (inactive).

Regarding `Cc1cc2c(c3nocc13)C(=O)c1ccccc1C2=O`, the GI50 in the assay on UO-31, in the assay on A549, in the assay on KM12, in the assay on HT-29, in the assay with RXF 393 and in the assay on SF-539 was > 100 µM (inactive) each time. Further, the GI50 in the assay with HL-60 is 98.2 µM (inactive); with U-251, > 100 µM (inactive); in the assay with OVCAR-4, > 100 µM (inactive); in the assay with EKVX it was > 100 µM (inactive); in the assay with NCI-H522 it was > 100 µM (inactive); in the assay on SW-620, > 100 µM (inactive). The GI50 in the assay with IGROV-1 is > 100 µM (inactive); in the assay with SK-MEL-2 it was > 100 µM (inactive); in the assay on UACC-257, > 100 µM (inactive); in the assay with HCT-15, > 100 µM; with OVCAR-5, > 100 µM (inactive).

Values taken from ChEMBL document CHEMBL1201862, “PubChem BioAssay data set” (2004).
